ChEMBL document CHEMBL1150826, “Antibacterial diterpenes from the roots of Salvia blepharochlaena” (2001)
Values after ≈ are worked out from the molar mass of the structure shown. Active and inactive are the calls of the source. No cut-off for these calls is given here.

How the values were obtained:
[1] = system: Bacillus subtilis; assay: Antimicrobial activity against Bacillus subtilis ATCC 6633 by disc-diffusion method; format: functional
[2] = system: Escherichia coli; assay: Antimicrobial activity against Escherichia coli by disc-diffusion method; format: functional, organism-based
[3] = system: Proteus mirabilis; assay: Antimicrobial activity against Proteus mirabilis by disc-diffusion method; format: functional, organism-based
[4] = system: Klebsiella pneumoniae; assay: Antimicrobial activity against Klebsiella pneumoniae by disc-diffusion method; format: functional, organism-based
[5] = system: Pseudomonas aeruginosa; assay: Antimicrobial activity against Pseudomonas aeruginosa by disc-diffusion method; format: functional, organism-based
[6] = system: Candida albicans; assay: Antimicrobial activity against Candida albicans by disc-diffusion method; format: functional, organism-based
[7] = system: Bacillus subtilis; assay: Antimicrobial activity against Bacillus subtilis ATCC 6633 by tube dilution method; format: functional
[8] = system: Staphylococcus aureus; assay: Antimicrobial activity against Staphylococcus aureus ATCC 6538 by disc-diffusion method; format: functional
[9] = system: Staphylococcus epidermidis; assay: Antimicrobial activity against Staphylococcus epidermidis ATCC 12228 by disc-diffusion method; format: functional
[10] = system: Enterococcus faecalis; assay: Antimicrobial activity against Enterococcus faecalis ATCC 29212 by disc-diffusion method; format: functional
[11] = system: Staphylococcus aureus; assay: Antimicrobial activity against Staphylococcus aureus ATCC 6538 by tube dilution method; format: functional
[12] = system: Staphylococcus epidermidis; assay: Antimicrobial activity against Staphylococcus epidermidis ATCC 12228 by tube dilution method; format: functional
[13] = system: Enterococcus faecalis; assay: Antimicrobial activity against Enterococcus faecalis ATCC 29212 by tube dilution method; format: functional
[14] = system: Mycobacterium tuberculosis; assay: Antimycobacterial activity against Mycobacterium tuberculosis by broth microdilution method; format: functional, organism-based

| Structure (SMILES) | inhibition zone (IZ) [1] [mm] | inhibition zone (IZ) [2] | inhibition zone (IZ) [3] | inhibition zone (IZ) [4] | inhibition zone (IZ) [5] | inhibition zone (IZ) [6] | MIC [7] [µg/mL] | inhibition zone (IZ) [8] | inhibition zone (IZ) [9] | inhibition zone (IZ) [10] | MIC [11] [µg/mL] | MIC [12] [µg/mL] | MIC [13] [µg/mL] | Activity [14] |
| --- | --- | --- | --- | --- | --- | --- | --- | --- | --- | --- | --- | --- | --- | --- |
| COc1cc2c(cc1C(C)C)CC[C@H]1C(C)(C)CCC[C@]21C(=O)O | >7 | inactive | inactive | inactive | inactive | inactive | 6.5 (≈ 19.7 µM) | inactive | inactive | inactive | – | – | – | – |
| CC(C)c1cc2c(cc1O)[C@@]1(C)CCCC(C)(C)[C@@H]1CC2 [FERRUGINOL] | >7 | – | – | – | – | – | > 250 | >7 mm | >7 mm | – | > 250 | > 250 | – | – |
| CC(C)C1=C(O)C(=O)C2=C(C1=O)[C@H](O)C[C@H]1C(C)(C)CCC[C@]21C [HORMINONE] | >7 | inactive | inactive | inactive | inactive | inactive | 1.5 (≈ 4.51 µM) | >7 mm | >7 mm | >7 mm | 6.5 (≈ 19.6 µM) | 1.5 (≈ 4.51 µM) | 14 (≈ 42.1 µM) | – |
| CC(=O)O[C@@H]1C[C@H]2C(C)(C)CCC[C@]2(C)C2=C1C(=O)C(C(C)C)=C(O)C2=O | >7 | inactive | inactive | inactive | inactive | inactive | 3 (≈ 8.01 µM) | >7 mm | >7 mm | inactive | 10 (≈ 26.7 µM) | 6 (≈ 16 µM) | – | – |
| Cc1c(O)cc2c3c(ccc2c1C)C=C(C(C)C)C(=O)C3=O | – | – | – | – | – | – | – | – | – | – | – | – | – | Active |
| COc1cc2c3c(ccc2c(C)c1C)C=C(C(C)C)C(=O)C3=O | – | – | – | – | – | – | – | – | – | – | – | – | – | Active |
| COc1cc2c(ccc3c(C)c(C)ccc32)cc1C(C)C | – | – | – | – | – | – | – | – | – | – | – | – | – | Active |
